In patent publication US20240042424A1, “CITY POLLUTION ENVIRONMENT SIMULATION APPARATUS” (BASF SE, priority 2017, published 2024):

Experiments:
Format in all cases: physicochemical
[1] = MDA quantification/TBA test for squalene samples after pollution exposure
Description: (§1) A) Stock solutions and preparation: • Stock solution squalene: 1 g of squalene was dissolved in 100 ml ethanol solvent • Stock solution sebum: 1 g of synthetic sebum (e.g. Synthetic Sebum 09D, available from WFK Testgewebe GmbH) was dissolved in 100 ml ethanol solvent using a water bath 15 minutes under 40° C. heat 1 ml of the respective stock solution was added at the center of large petri dishes (100 mm diameter×17 mm height) using an automatic pipette. After evaporating the ethanol solvent in a high ventilated fume hood for 10 mins, the petri dishes were coated with one uniform layer of squalene, respectively sebum, evenly distributed at the bottom of the petri dish. In total 16 samples were prepared, 8 of each respective batch, meaning 8 with squalene coating (batch 1) and 8 with sebum coating (batch 2). The side walls of the test petri dish samples were wrapped with plastic band seals in order to get them vertically hooked in a position facing the UVA lamps located on sides in the pollution test chamber. Four coated petri dishes, two with squalene and two with sebum, were stored in a fridge at 4° C. for control purposes, due to the autoxidation of squalene.
(§2) For each batch, 2 samples (in total 4 samples per mode) were respectively exposed to the 3 different pollution modes (i to iii): • i. During the “UVA only” (“uv”) mode, the samples were exposed to continuous 340 nm UV irradiation of the 8 UVA lamps for 6 hours. • ii. […]
(§3) 3.3.1 Squalene and Sebum oxidation products quantification with GC/MS • Equipment: Agilent 7890B/5977A GC-MS system • Dissolution solvent: Ethanol • column: DB-1MS • Flow Rate: 2 ml/min • Column Temperature: 40° C. […] Malondialdehyde (MDA) Quantification with Spectrophotometer (MDA-TBA Detection) • UV-vis scan between 200 and 800 nm, • Colorimetry: UV detection for MDA-TBA complex at 532 nm • Standard curve preparation: As precursor of MDA, 1,1,3,3-tetraethoxypropane (TEP) was used. […]

[2] = Sebum oxidation products by GC/MS after exposure in pollution test chamber (dry film method); settings: for change of sebum component in GC/MS chromatogram: upon UVA exposure
Description: as §1, §2, §3

[3] = Squalene oxidation products by GC/MS after exposure in pollution test chamber (dry film method); settings: solvent ethanol
Description: as §1, §2, §3

MDA percentage of initial mole of squalene ([1]; UVA irradiation only (uv mode)) [%]	MDA percentage of initial mole of squalene ([1]; combined exhaust gas and UV irradiation (puv mode)) [%]	MDA percentage of initial mole of squalene ([1]; exhaust gas only (p mode)) [%]	decrease of squalene from sebum (GC/MS) ([2]; 2 h UVA exposure and one-time 30 min exhaust gas, solvent Ethanol) [%]	squalene oxidization products (GC/MS) ([3]; UVA irradiation only (UV-Mode), UVA for 6 h)	squalene oxidization products (GC/MS) ([3]; exhaust gas only (p-Mode), 3x30 mins diesel engine exhaust gas)	change of sebum component in GC/MS chromatogram [2]	Structure (SMILES)	squalene oxidization products (GC/MS) ([3]; UVA and exhaust gas (PUV-Mode), UVA 6 h, 3x30 mins diesel engine exhaust gas)
14.0	13.6	13.5	93	highest content of oxidation products	squalene isomers (SQ isomers)		CC(C)=CCC/C(C)=C/CC/C(C)=C/CC/C=C(\C)CC/C=C(\C)CCC=C(C)C [squalene]	a mix of pollution-induced squalene isomers (SQ isomers) as well as irradiation-induced oxidation products (SQOPs)
						increase	CC(C)CCC[C@@H](C)[C@H]1CC[C@H]2[C@@H]3CC=C4C[C@@H](O)CC[C@]4(C)[C@H]3CC[C@]12C [cholesterol]	
						increase	CCCCCCCCCCCCCCCC(=O)O [palmitic acid]	
